Results published in paper PMC7699649 (Communications Biology, 2020).
Non-standard residues stand in square brackets, D forms with d. Residues, ends and D or L forms follow the SMILES beside them.

What was measured:
[1] = Maximum tolerated dose (MTD) study, i.v.; type: in vivo; conditions: ICR mice
Text: SI Figures: Why are there 6 different Figure 3s with separate legends? Within the 4th - 6th Figure 3’s, what are the 4 different graphs for each of A, B, and C? […] Figure 16, 19 and 24 […]
have unreadable components due to overlap of text.
Each panel that constitutes “Secondary structure analysis of pleurocidin peptides from MD simulations” and, as such, is the same data but analysed in different ways. For this reason, we considered it appropriate to consider these all as one figure. However, to provide further clarity we have renumbered the supplementary figures and added further detail to the legends. The DISICL analysis is presented with a separate panel for each peptide. This has been clarified in the figure legend.
The overlap in the metabolite annotation in Volcano plots is a challenge for those metabolites that do not change much or where there is low significance as they all cluster in the same place. Since they are below the significance threshold, we have elected to remove these labels. […]
unethical to perform dose-ranging experiments to confirm this. Instead our experimental design was […]
As mentioned above however, we […]
systemic delivery of AMPs will never be possible due to insufficient therapeutic index. There is a marginal therapeutic index provided based on mammalian cell toxicity (up to 12-fold), but many existing in vitro studies of AMPs have shown greater selectivity. […]

KC = experiment: Murine EMRSA-15 lung infection model: BAL cytokine ELISA; type: in vivo, C57Bl6J mice; conditions: 600 mg/kg vancomycin or the two higher D-pleurocidin-KR doses (15, 1.5 mg/kg) i.v., 48 h
MCP-1 = experiment: as above; type: in vivo, C57Bl6J mice; conditions: vancomycin or D-pleurocidin-KR i.v., 48 h
Calu-3 = type: cell-based; conditions: XTT, 24 h with peptide, OD475; DMEM/F-12, 10% FBS; average and standard error of three biological replicates
Protocol: (§1) HeLa and HEK293 cell lines were purchased from ECACC and cultured in Eagle’s Minimum Essential Media containing glutamine, supplemented with 10% FBS and 1X non-essential amino acids. A549 and Calu-3 cell lines were purchased from ATCC. […] Cytotoxicity was measured by incubating starter cultures of cells for 24 h in a 96 well plate, gently removing the supernatant and replacing it with dilutions of peptides and controls, incubating for a further 24 h and then staining of the cells with the second-generation tetrazolium dye, XTT.

A549 = type: cell-based; conditions: XTT, 24 h with peptide, OD475; DMEM, 10% FBS; average and standard error of three biological replicates
Protocol: as §1

HeLa = type: cell-based; conditions: XTT, 24 h with peptide, OD475; Eagle's Minimum Essential Media, 10% FBS; average and standard error of three biological replicates
Protocol: as §1

[2] = Murine EMRSA-15 lung infection model: body weight; type: in vivo, C57Bl6J mice
[3] = tested on: EMR Staphylococcus aureus-15 NCTC 13616; conditions: RPMI supplemented with 5% FBS (value in parentheses); twofold broth microdilution, 20 h 37 C, OD600; modal MIC, at least three biological replicates
Protocol: The antibacterial activity of the peptides was assessed through a modified twofold broth microdilution assay with modal MICs generated from at least three biological replicate experiments[20],[25]. The method broadly followed EUCAST methodology, with non-cation-adjusted Mueller Hinton or RPMI replacing cation-adjusted Mueller Hinton. Peptides and antibiotics were diluted in a twofold dilution in media down a 96 well plate. Bacteria were then added, back-diluted from an overnight culture, at a starting concentration of 5 × 10^5 CFU/ml. Plates were incubated, static at 37 C, for 20 h and the OD600 was determined using a Clariostar plate reader (BMG Labtech). […] Synergy was measured using standard microdilution checkerboard assays under the same conditions as the MICs[54]. Twofold dilution series of each peptide or antibiotic were prepared in separate 96 well plates and then combined into one before addition of bacteria. The growth/no growth interface was determined using the same definition as the MIC. The fractional inhibitory concentration was calculated from the most synergistic well on the plate for three independent repeats, and presented as the average +/− standard deviation. FIC is calculated as (MIC of compound A in combination with B/MIC of compound A alone) + (MIC of compound B in combination with A/MIC of compound B alone). MICs were determined on the same plates as the FICs to increase reproducibility.

EMRSA-15 = experiment: Murine EMRSA-15 lung infection model: lung CFU; type: in vivo, C57Bl6J mice
Text: CFUs were quantified in lung homogenates.

BAL cells = experiment: Murine EMRSA-15 lung infection model: BAL total and differential cell count; type: in vivo, C57Bl6J mice; conditions: 48 h
Protocol: Using the recently developed method[65], an overnight culture of EMRSA-15 was prepared in tryptic soy broth (TSB). EMRSA-15 was cultured in TSB overnight at 37 °C, adjusted to a starting OD600 of 0.025, and grown for additional 4 h for agar beads preparation. EMRSA-15 was embedded into agar beads by mixing the overnight culture with molten tryptic soy agar, which was then spun into warmed mineral oil. The preparation was cooled and centrifuged at 2700 × g, the remaining oil was eliminated, and the beads were washed in sterile PBS. The CFU content of the beads slurry was subsequently quantified on TSA plates and the beads slurry then diluted to 2 × 10^7 CFU/ml in sterile PBS to deliver a final dose of 1 × 10^6 CFU/mouse. Animal work was performed in accordance with the Animals (Scientific Procedures) Act of 1986 (United Kingdom) and 2012 revisions with local ethical approval of King’s College London. On day 0, male C57Bl6J mice (8–10 weeks, Charles River) were anaesthetised under Isoflurane and 50 µl inoculum of EMRSA-15 embedded in agar beads (10^6 CFU/mouse) was instilled directly into the respiratory tract via oropharyngeal dosing (o.a.). Sham control mice were inoculated with sterile PBS agar beads. […] Body weight was measured daily, and animals monitored at regular intervals for signs of pain and distress. After 48 h of pulmonary infection, animals were terminally euthanized using 25% urethane via intra-peritoneal injection. CFUs were quantified in lung homogenates. Lung homogenates were then centrifuged at 14000 rpm for 30 min at 4 °C and the supernatants were stored at −80 °C for future analysis. For BAL fluid collection and analysis (total and differential cell count), a 22-gauge catheter was inserted into the trachea and BAL was recovered by instillation of 0.5 ml of sterile PBS three times and total cells counts were performed by adding Turks stain in a 1:1 ratio. BAL fluid was then centrifuged, and supernatants were stored at −20 °C. Total levels of TNFα, IL-6, KC and MCP-1 were quantified from BAL fluid collected from all animals and measured by ELISA according to the manufacturer protocol (R&D Systems UK). Concentrations of all mediators were then normalised to total protein content of BAL fluid quantified via bicinchoninic acid total protein assays performed to manufacturers protocols (Thermofisher Scientific). […] Statistical analysis was by one-way ANOVA with Dunnett’s multiple comparisons test.

CC(C)C[C@@H](NC(=O)[C@@H](Cc1ccc(O)cc1)NC(=O)[C@@H](Cc1c[nH]cn1)NC(=O)[C@H](NC(=O)[C@@H](CC(C)C)NC(=O)[C@@H](C)NC(=O)[C@@H](C)NC(=O)[C@@H](CCCNC(=N)N)NC(=O)CNC(=O)[C@H](NC(=O)[C@@H](Cc1c[nH]cn1)NC(=O)[C@@H](CCCNC(=N)N)NC(=O)CNC(=O)[C@H](NC(=O)[C@@H](Cc1c[nH]cn1)NC(=O)[C@@H](C)NC(=O)[C@@H](C)NC(=O)[C@@H](CCCNC(=N)N)NC(=O)[C@@H](CCCNC(=N)N)NC(=O)[C@@H](Cc1ccccc1)NC(=O)[C@@H](Cc1ccccc1)NC(=O)[C@@H](CO)NC(=O)CNC(=O)[C@@H](Cc1c[nH]c2ccccc12)NC(=O)CN)C(C)C)C(C)C)[C@H](C)O)C(N)=O [D-pleurocidin-KR] (H-G[dW]G[dS][dF][dF][dR][dR][dA][dA][dH][dV]G[dR][dH][dV]G[dR][dA][dA][dL][dT][dH][dY][dL]-NH2; N-terminus assumed)
dose tolerated when administered i.v. [1]: 15 mg/kg/24 h
KC levels in BAL (KC): fall to that of the uninfected group
levels of MCP-1 in BAL (MCP-1): No effects
Toxicity Calu-3 (EC50 / IC50) (Calu-3): (39.1 ± 1.8) µg/ml
Toxicity A549 (EC50 / IC50) (A549): (56.5 ± 4.5) µg/ml
Toxicity HeLa (EC50 / IC50) (HeLa): (25.3 ± 2.2) µg/ml
weight loss over the 48-h infection period ([2]; cumulative 15 or 1.5 mg/kg/48 h D-pleurocidin-KR, 600 mg/kg vancomycin, i.v.): mitigates this weight loss
weight loss over the 48-h infection period ([2]; lowest dose of 0.15 mg/kg D-pleurocidin-KR i.v.): no observable effect
MIC, peptide concentration [3]: 0.5 µg/mL
reduction in lung CFU (EMRSA-15; cumulative 1.5 mg/kg/48 h i.v. (three doses at 4, 24, 30 h post infection)): 0.9 log10
reduction in lung CFU (EMRSA-15; cumulative 15 mg/kg/48 h i.v. (three doses at 4, 24, 30 h post infection)): 1.1 log10
reduction in lung CFU (EMRSA-15; lowest dose, cumulative 0.15 mg/kg i.v., 48 h): did not cause a significant reduction
neutrophil recruitment (BAL) (BAL cells; 600 mg/kg vancomycin or D-pleurocidin-KR (also lowest dose 0.15 mg/kg) i.v.): reduced
macrophage numbers in BAL (BAL cells; vancomycin or D-pleurocidin-KR i.v.): No effects
